Assay results: the supplement of paper PMC10307832

Key:
Test in all cases: relative viability (nuclei count vs DMSO), 5 days (fraction); higher = more cells survive
17-AAG + Luminespib = compound: C=CCNC1=C2C[C@@H](C)C[C@H](OC)[C@H](O)[C@@H](C)/C=C(\C)[C@H](OC(N)=O)[C@@H](OC)/C=C\C=C(/C)C(=O)NC(=CC1=O)C2=O [17-AAG] + CCNC(=O)c1noc(-c2cc(C(C)C)c(O)cc2O)c1-c1ccc(CN2CCOCC2)cc1 [Luminespib] (partner 0.01 µM)
How it was run: (§1)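 Lung cancer cell lines in 1536-well plates were dosed by pin tool the day after seeding, either with one drug alone or with a fixed anchor-drug dose plus five library-drug doses (not always all listed) in √10 steps. After 5 days, cells were fixed and their nuclei stained in one step (final 0.05% Triton X-100, 1% formaldehyde, 1 ug/ml Hoechst), then counted on 4× images. Relative viability is the nuclei count in treated wells divided by that in vehicle wells. Values are medians of duplicate plates.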

17-AAG + Lapatinib = compound: C=CCNC1=C2C[C@@H](C)C[C@H](OC)[C@H](O)[C@@H](C)/C=C(\C)[C@H](OC(N)=O)[C@@H](OC)/C=C\C=C(/C)C(=O)NC(=CC1=O)C2=O [17-AAG] + CS(=O)(=O)CCNCc1ccc(-c2ccc3ncnc(Nc4ccc(OCc5cccc(F)c5)c(Cl)c4)c3c2)o1 [Lapatinib] (partner 2 µM)
How it was run: as §1

17-AAG + Decitabine = compound: C=CCNC1=C2C[C@@H](C)C[C@H](OC)[C@H](O)[C@@H](C)/C=C(\C)[C@H](OC(N)=O)[C@@H](OC)/C=C\C=C(/C)C(=O)NC(=CC1=O)C2=O [17-AAG] + Nc1ncn([C@H]2C[C@H](O)[C@@H](CO)O2)c(=O)n1 [Decitabine] (partner 2 µM)
How it was run: as §1

17-AAG + Olaparib = compound: C=CCNC1=C2C[C@@H](C)C[C@H](OC)[C@H](O)[C@@H](C)/C=C(\C)[C@H](OC(N)=O)[C@@H](OC)/C=C\C=C(/C)C(=O)NC(=CC1=O)C2=O [17-AAG] + O=C(c1cc(Cc2n[nH]c(=O)c3ccccc23)ccc1F)N1CCN(C(=O)C2CC2)CC1 [Olaparib] (partner 8 µM)
How it was run: as §1

Cell Line | relative viability (17-AAG + Luminespib; first compound 0.00128 µM) | relative viability (17-AAG + Luminespib; first compound 0.004048 µM) | relative viability (17-AAG + Luminespib; first compound 0.0128 µM) | relative viability (17-AAG + Luminespib; first compound 0.04048 µM) | relative viability (17-AAG + Luminespib; first compound 0.128 µM) | relative viability (17-AAG + Lapatinib; first compound 0.00128 µM) | relative viability (17-AAG + Lapatinib; first compound 0.004048 µM) | relative viability (17-AAG + Lapatinib; first compound 0.0128 µM) | relative viability (17-AAG + Lapatinib; first compound 0.04048 µM) | relative viability (17-AAG + Lapatinib; first compound 0.128 µM) | relative viability (17-AAG + Decitabine; first compound 0.00128 µM) | relative viability (17-AAG + Decitabine; first compound 0.004048 µM) | relative viability (17-AAG + Decitabine; first compound 0.0128 µM) | relative viability (17-AAG + Decitabine; first compound 0.04048 µM) | relative viability (17-AAG + Decitabine; first compound 0.128 µM) | relative viability (17-AAG + Olaparib; first compound 0.00128 µM) | relative viability (17-AAG + Olaparib; first compound 0.004048 µM) | relative viability (17-AAG + Olaparib; first compound 0.0128 µM) | relative viability (17-AAG + Olaparib; first compound 0.04048 µM) | relative viability (17-AAG + Olaparib; first compound 0.128 µM)
SK-LU-1 | 0.215 | 0.174 | 0.176 | 0.177 | 0.15 | 0.812 | 0.545 | 0.454 | 0.216 | 0.14 | 0.582 | 0.599 | 0.402 | 0.24 | 0.223 | 0.512 | 0.439 | 0.301 | 0.153 | 0.173
LOU-NH91 | 0.345 | 0.239 | 0.282 | 0.3 | 0.291 | 0.852 | 0.795 | 0.521 | 0.328 | 0.36 | 0.806 | 0.724 | 0.623 | 0.47 | 0.393 | 0.894 | 0.759 | 0.546 | 0.395 | 0.386
NCI-H2405 | 0.542 | 0.335 | 0.256 | 0.239 | 0.184 | 1.04 | 0.784 | 0.193 | 0.203 | 0.138 | 0.714 | 0.675 | 0.424 | 0.242 | 0.189 | 0.797 | 0.856 | 0.275 | 0.233 | 0.168
NCI-H2126 | 0.681 | 0.499 | 0.261 | 0.243 | 0.292 | 0.731 | 0.784 | 0.775 | 0.53 | 0.276 | 0.556 | 0.631 | 0.616 | 0.622 | 0.456 | 0.895 | 0.887 | 0.893 | 0.762 | 0.265
HCC-827 | 0.579 | 0.706 | 0.652 |  | 0.291 | 0.225 | 0.216 | 0.193 |  | 0.259 | 0.279 | 0.363 | 0.308 |  | 0.306 | 0.698 | 0.755 | 0.769 |  | 0.331
NCI-H322M | 0.663 | 0.274 | 0.285 | 0.274 | 0.289 | 0.616 | 0.612 | 0.65 | 0.522 | 0.294 | 0.811 | 0.706 | 0.641 | 0.475 | 0.442 | 0.781 | 0.857 | 0.409 | 0.418 | 0.414
HOP-62 | 0.928 | 0.806 | 0.919 | 0.36 | 0.136 | 0.875 | 1.03 | 0.634 | 0.12 | 0.0921 | 0.24 | 0.238 | 0.25 | 0.167 | 0.172 | 0.445 | 0.411 | 0.22 | 0.171 | 0.0948
HCC-44 | 0.758 | 0.663 | 0.228 | 0.217 | 0.172 | 1.06 | 0.986 | 0.998 | 0.287 | 0.125 | 0.927 | 0.964 | 0.931 | 0.958 | 0.355 | 0.976 | 0.989 | 1 | 0.997 | 0.492
